In the case of `O=C(NCCOC1CCCCO1)c1cc([N+](=O)[O-])cc([N+](=O)[O-])c1N(CCO)CCBr` (stereo not given), the melting point was in the range of 121 to 123 °C.
Take `Oc1ccc2c(ccn2Nc2ccncc2F)c1`: the melting point lay in the range of 70 to 73 °C.
In the case of `CNC(=O)N1CC(Oc2cc(C(F)(F)F)ccc2F)C1`, the melting point fell in the range of 93.5 to 95 °C.
In turn, `CC[C@H](C)[C@H](NC(=O)Nc1cccc(C)c1)C(=O)N[C@H](CO)Cc1c[nH]c2ccccc12` gave a melting point of 185 to 186 °C.
`O=C(NN=CC=Cc1ccccc1)c1ccccc1` gave a melting point of 192 to 194 °C.
The molecule `N#Cc1ccccc1NC(=O)c1snnc1C1CC1` showed a melting point of 124 °C.
Consider `N#CCC(O)(Cn1cncn1)c1ccc(Cl)cc1Cl` (stereo not given), for which the melting point was 217 to 219 °C.
Take `COc1cc(C(N)=O)c([N+](=O)[O-])cc1OC`: the melting point stood at 197 °C.
Turning to `CC(C)n1nc(-c2c(-c3ccccc3)nn3ccc(OCC(=O)NCCN(C)C)cc23)ccc1=O`, the melting point was in the range of 117 to 119 °C.
In turn, `COC(=O)c1cc(Cl)c(Cl)c(Cl)c1` displayed a melting point of 111 to 112 °C.
Turning to `O=C(O)CCCOc1ccc([C@H]2c3ccc(O)cc3OC[C@H]2c2ccccc2)cc1` (racemic), the melting point was 91.5 to 94 °C.
As to `CCOC(=O)C1(C(=O)OCC)CCC2(CC1)NCCc1cc(O)c(O)cc12`, the melting point was in the range of 180 to 181 °C.
`Cn1c2cc(Cl)ccc2c2c(CO)nn(-c3ccccc3)c(=O)c21` displayed a melting point of 219 to 220 °C.
In turn, `Cc1cc(C#N)cc(C)c1Oc1nc(Nc2ccc(C#N)cc2)nc(C)c1Br` registered a melting point of 260 to 262 °C.
`Cc1ccc(-c2cc3ccc(C(=O)Nc4ccc(CN(C)C5CCOCC5)cc4)cc3o2)cc1`: the melting point is 224 to 227 °C.
Take `CC(=O)c1c(C)c(NC(=O)NC(C)(C)C)c(C)c2c1OCC2c1ccc(C(C)C)cc1` (stereo not given): the melting point was in the range of 207 to 208 °C.
The result for `CC(C)(Oc1ccc(Cl)cc1Cl)C(=O)C(Cc1ccc(Cl)cc1)n1cncn1` (stereo not given) reads 104 to 108 °C.
The molecule `O=CN(N=Cc1cccs1)c1ccc(Cl)cc1` came in with a melting point of 103 to 105 °C.
As to `CC(=O)NC[C@H]1CN(c2ccc(C3=CCOCC3)c(F)c2)C(=O)O1`, the melting point was in the range of 148 to 151 °C.
For `CC(C)(CN1CCCCC1)Nc1ccnc2cc(Cl)ccc12`, the melting point fell in the range of 143 to 147 °C.
Then `COc1ccc(Cc2nc3c(N)nc4ccccc4c3n2CCOc2ccccc2)cc1`, with 201 to 204 °C; and `C[C@@](O)(C(=O)N1CCC(C(=O)c2ccc(F)cc2)CC1)C(F)(F)F`, with 78 to 79 °C.
`O=c1cc(-c2ccccc2)oc2ncc(CN3CCCC3)cc12`: the melting point lay in the range of 294 to 296 °C.
The result for `Cc1noc(NS(=O)(=O)c2ccc(N(C)C)cc2)c1C` reads 152 to 154 °C; that for `NC(=O)c1cc(N2CCN(Cc3ccc(F)cc3)C2=O)n[nH]1`, 256 to 258 °C; that for `CCCCc1ccc(OC(=O)c2ccc(-c3ccc(CC(CC)CCCC)cc3)cc2)c(C#N)c1` (stereo not given), 37 °C.
Regarding `O=C(O)c1ccc(C2CCNCC2)cc1`, the melting point is > 270 °C.
Turning to `Cc1oc2c(C(O)CN)cccc2c1C` (stereo not given), the melting point is 73 °C.
On to `CCC(=O)C1CN(C(c2ccccc2)c2ccccc2)C1`, for which the melting point lay in the range of 73 to 75 °C.
Take `O=C1c2c(O)ccc(O)c2C(=O)c2c(NCCN3CCOC34CCCCC4)ccc(NCCN3CCOC34CCCCC4)c21`: the melting point is 218 to 225 °C.
Consider `O=C(OC1CCCC1)c1ncn2c1[C@@H]1CCCN1C(=O)c1c(Cl)cccc1-2`, for which the melting point was 210 to 212 °C.
`CNCC1(C)Cc2c(C)c(N3CCN(c4ccc(OC)cc4)CC3)c(C)c(C)c2O1` (stereo not given) yielded a melting point of 107 to 113 °C.
Consider `CCCCNC(=S)c1ccc2c(c1)N(C(C)CN(C)C)c1ccccc1S2` (racemic), for which the melting point worked out at 154 °C.
Take `CN1CCN(Cc2ccc(NC(=O)n3ccc4cc(Oc5cc(CC(N)=O)ncn5)ccc43)cc2C(F)(F)F)CC1`: the melting point is 221 to 223 °C.
On to `COc1c(N)nc(-c2ccc(Cl)c(F)c2F)nc1C(=O)NO`, for which the melting point lay in the range of 192 to 194 °C.
`CCOC(=O)[C@@H]1O[C@@H]1c1ccc(C)cc1` came in with a melting point of 66 °C.
`CC(=O)N(C(=O)c1ccccc1O)C(C)C(=O)O` (racemic) had a melting point of 118 to 120 °C.
With `Cc1cccc(CCC(C)O)c1NC(=O)CC1c2ccccc2Oc2ccccc21` (stereo not given), the melting point fell in the range of 167 to 168 °C.
In turn, `CCOC(=O)C1=C(N=CN(C)C)NC(C)=C(C(=O)OC(C)C)C1c1ccccc1Cl` (stereo not given) returned a melting point of 138 °C.
Consider `O=C1c2ccccc2C(=O)N1Cc1noc(-c2ncn3c2[C@@H]2CCN2C(=O)c2cc(F)ccc2-3)n1`, for which the melting point was in the range of 287 to 288 °C.
For `CC(CCC(=O)O)C1CCC2C3C(=O)CC4CC(OC=O)CCC4(C)C3CC(OC=O)C12C` (stereo not given), the melting point was 208 to 211 °C.
Then `O=C(Nc1ccc(OCc2ccncc2)c2ccccc12)c1cc(F)cc(OC2CCOCC2)c1`, with 182 to 184 °C; and `NC(=O)CN1C[C@@H]2CCCC[C@@H]2C1=O` (relative stereo), with 142 to 144 °C; and `CC(C)(Oc1cccc(C(=O)c2ccc(C(F)(F)F)cc2)c1)C(=O)O`, with 133 °C.
`CC1Cc2cc3c(cc2C(c2ccc([N+](=O)[O-])cc2)=NN1C(=O)CBr)OCO3` (stereo not given) registered a melting point of 183 to 186 °C.
Then `COc1ccc(/C=C/C(=O)CC(=O)/C=C/c2ccc(O)c(F)c2)cc1O`, with 173 to 176 °C; and `Cc1ccc(S(=O)(=O)NC(=O)OCCc2ccc(-n3c(CCC(=O)N4CCCCC4)nc4cc(C(F)(F)F)c(Cl)cc43)cc2)cc1`, with 210 °C.
For the molecule `O=C(NC1CCN(C(=O)c2ccccc2)CC1)c1ccccc1Oc1ccc(Cl)cc1Cl`, the melting point was in the range of 63 to 66 °C.
The molecule `CCOC(=O)c1nc(-c2ccc(Cl)cc2Cl)c(-c2ccc(Br)cc2)s1` registered a melting point of 129 to 130 °C.
The molecule `C1CCC(Nc2nc(NC3CCCCC3)nc(NC3CCCCC3)n2)CC1` yielded a melting point of 225 °C.
The molecule `CC1CCC2(c3c[nH]cn3)Cc3ccccc3C12` (stereo not given) yielded a melting point of 168 to 172 °C.
Molecule `CC1CCCCC1C(=O)Nc1ccc(-c2cnc(-c3ccc(NC(=O)C4CCCCC4)cc3)[nH]2)cc1` (stereo not given) had a melting point of 221 to 223 °C.
`Cc1c(CO)nc2c(OCc3ccccc3)cccn12` had a melting point of 172 to 175 °C.
Then `c1cc(-c2nccs2)cc(-n2cnc3cc(-c4ccoc4)ccc32)c1`, with 102 to 105 °C; and `CC(CCCC(C)(C)O)C1CCC2C3CCC4(O)CC(O)CCC4(C)C3CCC12C` (stereo not given), with 202 to 204 °C.
The molecule `CNC(=O)Oc1ccccc1C(=O)NC(Oc1ccccc1)C(Cl)(Cl)Cl` (stereo not given) had a melting point of 138 to 141 °C.
Turning to `CC(O)Cn1nc2c3c(cc(N)cc31)CCC2` (stereo not given), the melting point fell in the range of 125 to 127 °C.
The result for `O=C(NOCC(O)CN1CCCCC1)Nc1cccc([N+](=O)[O-])c1` (stereo not given) reads 137 to 139 °C.
Molecule `CCOc1c(Nc2cc(C3C(C(=O)OC)=C(C)NC(C)=C3C(=O)OC)ccc2F)c(=O)c1=O` registered a melting point of 203 to 205 °C.
The result for `COC(=O)c1cc(Oc2ccc(Cl)c(C)c2)ccc1[N+](=O)[O-]` reads 85 to 87 °C.
`CC(C)OC(=O)C1=C2SCC(=CC(=O)N3CCCCC3)N2CC1`: the melting point lay within 128 to 130 °C.
`CC(C)(CCl)C(=O)C(Oc1ccc(-c2ccc(Cl)cc2)cc1)n1ccnc1` (stereo not given) showed a melting point of 97 to 99 °C.
Regarding `CC1CC(=O)NN=C1c1ccc(NC(=NC#N)NCCc2ccccc2)cc1` (stereo not given), the melting point fell in the range of 209 to 210 °C.
`COc1ccc(C(O)CCS(=O)(=O)c2ccc(S(N)(=O)=O)s2)cc1` (stereo not given): the melting point is 129 to 130 °C.
`O=C1NC(Cc2c[nH]c3ccccc23)C(CCc2cc(C(F)(F)F)cc(C(F)(F)F)c2)N1CCN1CCOCC1` (stereo not given): the melting point is 207 °C.
For `Oc1c(C(Nc2ccc(C(F)(F)F)cc2)c2ccccn2)ccc2cccnc12` (stereo not given), the melting point lay within 158 to 161 °C.
`COC(=O)c1ccc(C(O)c2cc3cc(Cl)ccc3n2S(=O)(=O)c2ccc(C(C)C)cc2)cc1` (stereo not given) showed a melting point of 71 °C.
For `CC(C)(C)c1ccc2c(c1)-c1c(c(C(=O)C(C#N)C(=O)NCc3ccccc3)nn1-c1ccccc1)CO2` (stereo not given), the melting point is 281 to 284 °C.
For the molecule `CC(=O)N[C@H]1CC[C@H](CCN2CCN(c3ncc(C)c4c3CCO4)CC2)CC1`, the melting point turned out to be 196 °C.
As to `CC(=O)Nc1c(C(=O)c2ccccc2)[nH]c2cccc(Cl)c12`, the melting point was 221 to 222 °C.
As to `Cc1ccc(CCCNC(=O)Cc2ccc(OCCN)c([N+](=O)[O-])c2)cc1C`, the melting point turned out to be 98 °C.
For `CC(=O)c1c(N=Cc2ccccc2)c(-c2ccccc2)n(Cc2ccc(Cl)cc2)c1C`, the melting point is 136 to 137 °C.
In turn, `COc1cc(OC)c2c(=O)[nH]c(-c3ccc(OCCNC(C)C)c(-c4ccc(S(C)(=O)=O)cc4C)n3)nc2c1` gave a melting point of 202 to 203 °C.
In the case of `CC(C)NC(=O)c1ccc(N2CCC(N3C(=O)OCc4ccccc43)CC2)nn1`, the melting point stood at 120 °C.
`COC(=O)c1cc(=O)c2oc3ccc(Cl)cc3c(=O)c2n1C`: the melting point lay within 276 to 278 °C.
Molecule `CCOC(=O)/C=C/c1cn(Cc2ccc(OCc3nc(-c4ccccc4)oc3C)cc2)nc1OCc1ccc(OCc2nc(-c3ccccc3)oc2C)cc1` registered a melting point of 148 to 149 °C.
`COc1ccc(Cl)cc1-n1c(-c2cc(C(F)(F)F)cc(C(F)(F)F)c2)n[nH]c1=O`: the melting point fell in the range of 206 to 207 °C.
`Cc1ncc2c(=O)n(C)c(=O)n(C)c2n1` registered a melting point of 113 to 115 °C.
For the molecule `COCC(OC(N)=O)c1nc2cc(F)c(OC(C)c3c(Cl)ccc(F)c3Cl)cc2s1` (stereo not given), the melting point lay in the range of 200 to 205 °C.
Then `CN1CCC(O)(CNC=O)CC1`, with 116 to 122 °C.
For `CN(C)C(=O)C=Cc1ccc(SC2Cc3cc(O)ccc3C3CCC4(C)C(O)CCC4C23)cc1` (stereo not given), the melting point fell in the range of 152 to 155 °C.
In turn, `O=C1COc2ccc(C#Cc3ccccn3)cc2N1` showed a melting point of 210 °C.
`OCC1OC(n2cnc3c(OCC4CC4)ncnc32)CC1F` (stereo not given): the melting point worked out at 100 °C.
In turn, `CCOP(=O)(/C=C/c1cn(-c2ccccc2)nc1OCc1ccc(OCc2nc(-c3ccco3)oc2C)nc1)OCC` had a melting point of 134 to 135 °C.
Turning to `Clc1ccc2c(c1)OCc1cccnc1C2N1CCNCC1` (stereo not given), the melting point was 162 to 164 °C.
